Reference: US20150190369A1, “QUERCETIN-3-GLUCOSIDE AND USES THEREOF” (priority 2012, published 2015)

Columns and labels:
[1] = system: PCSK9 mRNA; assay: qRT-PCR for PCSK9 mRNA in MIN6 β-cells; format: cell-based, mouse; design: increase in PCSK9 mRNA: dose or concentration left out as unconfirmed; conditions: MIN6, 24 h
Description: (§1) Mouse insulinoma MIN6 cells were cultured in a 5% CO2-95% air atmosphere at 37° C. in DMEM medium containing 10% heat-inactivated fetal bovine serum, 1 mM Na-pyruvate, 2 mM L-glutamine, 25 mM D-glucose, and 28 μM β-mercaptoethanol. Q3G at a specific final concentration was supplemented to the culture medium and incubation was conducted for a selected length of time. Media were collected, spun at 600 g to sediment suspended cells, supplemented with 0.5 volumes of 3×RIPA-PIC (1×: 50 mM Tris-HCl, pH 8, 150 mM NaCl, 1% NP-40, 0.5% Na-deoxycholate and 0.1% SDS and PIC). Cells were lysed in 1×RIPA-PIC for immuno-blotting, or in RNA extraction buffer for qRT-PCR.
For the mouse studies, the levels of specific mRNAs were quantified in a PCR-based fluorogenic assay using the Taqman technology (Holland et al., 1991). Briefly, total RNA was extracted using the RNeasy extraction kit and reverse-transcribed into cDNA using random hexameric primers and the Superscript II RNase H-Reverse Transcriptase. The cDNA was used as a template to produce PCR amplicons using FastStart TaqMan ProbeMaster-Rox master mix, primer pairs and the appropriate fluorescent probes) in the Stratagene Mx3005P thermocycler. Standard curves were established using varying amounts of pre-quantified amplicons of each transcript. The level of mRNA for the TATA-box binding protein (TBP) was used for normalization.
MIN6 β-cells were incubated for 24 h in the presence of different concentrations of Q3G. Total RNA was extracted and analyzed by qRT-PCR for the levels of mRNA for PCSK9, LDLR, ABCA1 and ABCG1.

[2] = system: LDLR; assay: Immunoblotting for LDLR in MIN6 β-cells; format: cell-based, mouse
Description: The corresponding photographs of the immunoblotting results are also shown. MIN6 cells were incubated for 24 h in the presence of 16 μM Q3G. Cell lysates were analyzed by semi-quantitative immunoblotting using different antibodies successively.
as §1
Cell lysates were fractionated by SDS-PAGE and electrophoretically transferred onto a polyvinylidene fluoride membrane. […] The signal was captured on X-ray film and immunoreactive bands analyzed by densitometry on a Syngene's ChemiGenius^2XE Bio Imaging System (Cambridge, Mass.) within the dynamic range of the instrument. […]

[3] = system: PCSK9; assay: ELISA for secreted PCSK9 in conditioned media of Huh7 cells; format: cell-based, human; conditions: Huh7, 24 h
[4] = system: PCSK9; assay: Pulse-chase metabolic labeling and immunoprecipitation of PCSK9-related proteins in Huh7 cells; format: cell-based, human; conditions: Huh7 pre-incubated 24 h with 5 μM Q3G
Description: For metabolic labeling, Huh7 cells were seeded in a 12-well plate 8×10^5 cells/well in 1.5 ml/well of complete medium and incubated overnight. After a rinse with Dulbecco's PBS (PBS-D), cell monolayers were overlaid with 1.5 ml of DMEM/10% LPDS without or with 5 μM Q3G, and were incubated for 24 h. Fresh serum-free medium (SFM, 1.5 ml) was substituted, and cells were allowed to incubate for 30 min to reduce endogenous Met and Cys. The medium was removed and replaced with fresh SFM (0.75 ml/well) containing 300 μCi/ml^35S-Met/Cys, and cells were incubated at 37° C. for 20 min to label de novo biosynthesized proteins (pulse-labeling). The radioactive medium was replaced with DMEM/0.5% LPDS containing 10 mM non-radioactive Met/Cys and cells were incubated at 37° C. for 0, 15, 30, 60, 90 and 120 min (chase). Conditioned media and cell lysates were processed as described above.
Radioactive conditioned media or cell lysates (0.1 ml) were supplemented with […] of normal rabbit serum and 15 μl of a 50% (w/v) suspension of Protein A-agarose. After a 1-h incubation at 4° C. with rotational mixing, the samples were centrifuged at 3,000 g for 5 min at 4° C. Supernatants were supplemented 2 μl of rabbit anti-PCSK9 [35], and incubated as above. […] Specific radioactive protein bands were visualized and quantified on a Typhoon Phosphorimager (Molecular Dynamics). […]

For `O=c1c(O[C@@H]2O[C@H](CO)[C@@H](O)[C@H](O)[C@H]2O)c(-c2ccc(O)c(O)c2)oc2cc(O)cc(O)c12` [Q3G, quercetin-3-O-β-D-glucoside], the “effect on PCSK9 mRNA levels” value ([1]; Q3G 8 mM and above) was “increased”, the “effect on PCSK9 mRNA levels” value ([1]; Q3G up to 4 mM) was “does not affect” and the “increase in PCSK9 mRNA” value ([1]; maximum Q3G concentration used) was 2.5 fold. For the same compound, the “amount of cell-surface LDL-receptor versus untreated MIN6 β-cells” value ([2]; MIN6, 24 h, 16 μM Q3G) was “approximately 1.4 times”, the “relative amount of LDLR protein compared with mRNA” value ([2]; MIN6, Q3G-treated) was “in concordance with the relative amounts of mRNA” and the “level of PCSK9 in spent media” value ([3]; co-treatment 5 μM Q3G with simvastatin 0.2 and 1 μM, versus simvastatin alone) was “reducing”. For the same compound, the “decrease of PCSK9 in conditioned media” value ([3]; highest Q3G concentration tested (0 to 10 μM)) was 35%, the “rate of intracellular proPCSK9 precursor processing versus untreated cells” value [4] was “no obvious difference” and the “time to half-maximum accumulation of PCSK9 in culture media (percent of total PCSK9 proteins)” value ([4]; control cells 60 min) was 90 min.
